Assay type in all cases: biochemical
Test [1] deals with human JAK1. Description: In vitro JAK kinase assay (HTRF, phosphorylation of a biotinylated peptide), JAK1. Particulars: ratio of IC50s, 1 mM ATP. The gist of the method:
(§1)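 Baculovirus-expressed catalytic domains (JAK1 a.a. 837-1142, JAK2 a.a. 828-1132) phosphorylate 500 nM biotinylated peptide at 1 mM ATP, Tris pH 7.8, 1 h at room temperature. EDTA stop and HTRF detection with Eu-Py20/SA-APC; IC50 values derived.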

Test [2] concerns the target human JAK1 (Homo sapiens, UniProt P23458). The description is as above. Particulars: 1 mM ATP. The gist of the method: as §1
Test [3] concerns the target human JAK2 (Homo sapiens (Human), UniProt O60674). Description: In vitro JAK kinase assay (HTRF, phosphorylation of a biotinylated peptide), JAK2. On the set-up: key to JAK2 IC50 (nM): +indicates an IC50 of ≦100 nM; ++indicates an IC50 of ≦1000 nM; +++indicates an IC50 of ≦2000 nM; ++++indicates an IC50 of >2000 nM; +++++indicates that the IC50 was greater than the highest concentration tested. Particulars: 1 mM ATP. The gist of the method: as §1

Each structure is given as a SMILES string.

human JAK2, sequence (O60674 828-1132): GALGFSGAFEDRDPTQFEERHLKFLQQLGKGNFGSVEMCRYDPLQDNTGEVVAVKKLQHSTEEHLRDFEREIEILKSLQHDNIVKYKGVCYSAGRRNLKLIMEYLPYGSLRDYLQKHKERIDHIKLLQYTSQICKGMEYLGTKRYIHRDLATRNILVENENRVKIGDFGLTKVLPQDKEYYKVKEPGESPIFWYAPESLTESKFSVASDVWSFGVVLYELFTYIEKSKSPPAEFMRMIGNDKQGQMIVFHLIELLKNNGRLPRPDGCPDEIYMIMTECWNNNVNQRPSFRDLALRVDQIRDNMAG

As to `C[C@@H](O)c1nc2cnc3ccsc3c2n1[C@H]1CC[C@H](CF)CC1` [Example 12, (1R)-1-{1-[trans-4-(Fluoromethyl)cyclohexyl]-1H-imidazo[4,5-d]thieno[3,2-b]pyridin-2-yl}ethanol], the JAK2/JAK1 in test [1] was greater than 10. The IC50 in test [2] is no more than 100 nM; in test [3], no more than 2000 nM.
The corresponding values for `C[C@H](O)c1nc2cnc3ccsc3c2n1[C@H]1CC[C@H](CC#N)OC1` [Example 45, ((2R,5S)-5-{2-[(1S)-1-Hydroxyethyl]-1H-imidazo[4,5-d]thieno[3,2-b]pyridin-1-yl}tetrahydro-2H-pyran-2-yl)acetonitrile] are greater than 10, no more than 100 nM and greater than 2000 nM.
On to `CC(C)OC(=O)NC[C@H]1CC[C@H](n2c(CC#N)nc3cnc4ccsc4c32)CC1` [Example 88, Isopropyl ({trans-4-[2-(cyanomethyl)-1H-imidazo[4,5-d]thieno[3,2-b]pyridin-1-yl]cyclohexyl}methyl)carbamate], for which the JAK2/JAK1 in test [1] is on record as greater than 10. In test [2], this compound registered an IC50 of no more than 100 nM. For the same compound, the “JAK2 IC50 (nM)” value in test [3] is reported as “+++++”.
Regarding `CCc1nc2cnc3ccsc3c2n1[C@H]1CC[C@H](CC#N)CC1` [Example 47, [trans-4-(2-Ethyl-1H-imidazo[4,5-d]thieno[3,2-b]pyridin-1-yl)cyclohexyl]acetonitrile], the JAK2/JAK1 in test [1] is greater than 10. For the same compound, the IC50 is no more than 100 nM in test [2] and no more than 1000 nM in test [3].
Regarding `CS(=O)(=O)NCc1nc2cnc3ccsc3c2n1[C@H]1CC[C@H](CC#N)CC1` [Example 18, N-({1-[trans-4-(Cyanomethyl)cyclohexyl]-1H-imidazo[4,5-d]thieno[3,2-b]pyridin-2-yl}methyl)methanesulfonamide], in test [1], the JAK2/JAK1 is listed as greater than 10. Also, the IC50 was no more than 100 nM in test [2] and no more than 1000 nM in test [3].
In the same order, the values of `C[C@@H](O)c1nc2cnc3ccsc3c2n1[C@H]1CCCN(C(=O)CCc2ccccc2)C1` [Example 57] are greater than 10, no more than 100 nM and greater than 2000 nM.
With `CC(=O)NC[C@H]1CC[C@H](n2c([C@@H](C)O)nc3cnc4ccsc4c32)CC1` [Example 79, N-[(trans-4-{2-[(1R)-1-Hydroxyethyl]-1H-imidazo[4,5-b]thieno[3,2-b]pyridin-1-yl}cyclohexyl)methyl]acetamide], the JAK2/JAK1 in test [1] was greater than 10. Further, the values for the IC50 in test [2] and in test [3] were no more than 100 nM and no more than 2000 nM, respectively.
On to `C[C@@H](O)c1nc2cnc3ccsc3c2n1[C@H]1CCN(CCCC#N)C1` [Example 65, 4-((3S)-3-{2-[(1R)-1-Hydroxyethyl]-1H-imidazo[4,5-d]thieno[3,2-b]pyridin-1-yl}pyrrolidin-1-yl)butanenitrile], for which the JAK2/JAK1 in test [1] is recorded as greater than 10. The compound also yielded an IC50 in test [2] of no more than 1000 nM. Besides, in test [3], the “JAK2 IC50 (nM)” value was “+++++”.
`N#CC[C@H]1CC[C@H](n2c(CO)nc3cnc4ccsc4c32)CC1` [Example 17, {trans-4-[2-(Hydroxymethyl)-1H-imidazo[4,5-b]thieno[3,2-b]pyridin-1-yl]cyclohexyl}acetonitrile]: the JAK2/JAK1 in test [1] is given as greater than 10. Moreover, the IC50 in test [2] is no more than 100 nM; in test [3], no more than 1000 nM.
As to `N#CCC1CCC(CO)(n2cnc3cnc4ccsc4c32)CC1` (single isomer, unassigned) [72 (second peak), [4-(Hydroxymethyl)-4-(1H-imidazo[4,5-d]thieno[3,2-b]pyridin-1-yl)cyclohexyl]acetonitrile], the JAK2/JAK1 in test [1] is given as greater than 5. In addition, the figures for the IC50 in test [2] and in test [3] were no more than 100 nM and no more than 1000 nM, respectively.
In the same order, the values of `C[C@@H](O)c1nc2cnc3ccsc3c2n1[C@H]1CC[C@@H](C#N)CC1` [Example 7, cis-4-{2-[(1R)-1-Hydroxyethyl]-1H-imidazo[4,5-d]thieno[3,2-b]pyridin-1-yl}cyclohexanecarbonitrile] are greater than 10, no more than 100 nM and no more than 2000 nM.

(Values after patent US9777017B2, “Tricyclic fused thiophene derivatives as JAK inhibitors” (Incyte Corporation, priority 2012, dated 2017).)
